In brackets after ≈: the same amount, converted by molar mass. A value given as a limit tells only on which side of the number the result lay.

The source of these data is ChEMBL document CHEMBL4152347 (J Med Chem, 2018).

The nature of data set [1]: Drug level in human plasma treated with [14C]4-[(1R,3aS,5aR,5bR,7aR,11aS,11bR,13aR,13bR)-3a-[2-(1,1-dioxo-1,4-thiazinan-4-yl)ethylamino]-1-isopropenyl-5a,5b,8,8,11a-pentamethyl-1,2,3,4,5,6,7,7a,11,11b,12,13,13a,13b-tetradecahydrocyclopenta[a]chrysen-9-yl]benzoic acid at 5 mg/kg, po administered via gavage by LC-MS/MS analysis. It is filed as ADME, organism-based. The settings on record: in vivo.

The nature of data set [2]: Drug level in Sprague-Dawley rat plasma treated with [14C]4-[(1R,3aS,5aR,5bR,7aR,11aS,11bR,13aR,13bR)-3a-[2-(1,1-dioxo-1,4-thiazinan-4-yl)ethylamino]-1-isopropenyl-5a,5b,8,8,11a-pentamethyl-1,2,3,4,5,6,7,7a,11,11b,12,13,13a,13b-tetradecahydrocyclopenta[a]chrysen-9-yl]benzoic acid by LC-MS/MS analysis. It is filed as ADME, cell-free.
A short description of data set [3]: Drug level in beagle dog plasma treated with [14C]4-[(1R,3aS,5aR,5bR,7aR,11aS,11bR,13aR,13bR)-3a-[2-(1,1-dioxo-1,4-thiazinan-4-yl)ethylamino]-1-isopropenyl-5a,5b,8,8,11a-pentamethyl-1,2,3,4,5,6,7,7a,11,11b,12,13,13a,13b-tetradecahydrocyclopenta[a]chrysen-9-yl]benzoic acid at 5 mg/kg, po administered via gavage by LC-MS/MS analysis. Conditions: in vivo; call rule not given here. Format: ADME, organism-based, Canis lupus familiaris.

Data set [4] is described as follows: Drug level in cynomolgus monkey plasma treated with [14C]4-[(1R,3aS,5aR,5bR,7aR,11aS,11bR,13aR,13bR)-3a-[2-(1,1-dioxo-1,4-thiazinan-4-yl)ethylamino]-1-isopropenyl-5a,5b,8,8,11a-pentamethyl-1,2,3,4,5,6,7,7a,11,11b,12,13,13a,13b-tetradecahydrocyclopenta[a]chrysen-9-yl]benzoic acid at 5 mg/kg, po administered via gavage by LC-MS/MS analysis. Format: ADME, organism-based, Macaca fascicularis. Conditions: in vivo.

A short description of data set [5]: Dissociation constant, pKa of the compound. Format: physicochemical.
Another data set in a line: in vivo. Conditions: Sprague-Dawley, rat, po, 5 mg/kg.
Data set [6] is described as follows: in vitro. The settings on record: rat, liver microsomes. (In general: Liver microsomes are vesicles of endoplasmic reticulum, rich in cytochrome P450 enzymes.)
Description: Half life in rat liver microsomes at 0.5 uM after 1 hr in presence of NADPH by LC-MS/MS analysis
Data set [7] can be described thus: in vitro. The settings on record: human, liver microsomes.
Description: Half life in human liver microsomes at 0.5 uM after 1 hr in presence of NADPH by LC-MS/MS analysis
Data set [8] is described as follows: Drug metabolism in human plasma assessed as mono-oxidation product formation at 5 mg/kg, po administered via gavage by LC-MS/MS analysis. It is filed as ADME, organism-based. The settings on record: in vivo.
A short description of data set [9]: Drug metabolism in Sprague-Dawley rat plasma assessed as mono-oxidation product formation at 5 mg/kg, po administered via gavage by LC-MS/MS analysis. Format: ADME, organism-based. The settings on record: in vivo.
Data set [10] can be described thus: Drug metabolism in beagle dog plasma assessed as mono-oxidation product formation at 5 mg/kg, po administered via gavage by LC-MS/MS analysis. It is filed as ADME, organism-based, Canis lupus familiaris. Conditions: in vivo.
A short description of data set [11]: Drug metabolism in cynomolgus monkey plasma assessed as mono-oxidation product formation at 5 mg/kg, po administered via gavage by LC-MS/MS analysis. Format: ADME, organism-based, Macaca fascicularis. The settings on record: in vivo.
Data set [12] is described as follows: Drug metabolism in human plasma assessed as 4-((1R,3aS,5aR,5bR,7aR,11aS,11bR,13aR,13bR)-3a-amino-5a,5b,8,8,11a-pentamethyl-1-(prop-1-en-2-yl)-2,3,3a,4,5,5a,5b,6,7,7a,8,11,11a,11b,12,13,13a,13b-octadecahydro-1H-cyclopenta[a]chrysen-9-yl)benzoic acid formation at 5 mg/kg, po administered via gavage by LC-MS/MS analysis. Format: ADME, organism-based. Conditions: in vivo.

Data set [13] is described as follows: Drug metabolism in Sprague-Dawley rat plasma assessed as 4-((1R,3aS,5aR,5bR,7aR,11aS,11bR,13aR,13bR)-3a-amino-5a,5b,8,8,11a-pentamethyl-1-(prop-1-en-2-yl)-2,3,3a,4,5,5a,5b,6,7,7a,8,11,11a,11b,12,13,13a,13b-octadecahydro-1H-cyclopenta[a]chrysen-9-yl)benzoic acid formation at 5 mg/kg, po administered via gavage by LC-MS/MS analysis. Format: ADME, organism-based. The settings on record: in vivo.

The nature of data set [14]: Drug metabolism in beagle dog plasma assessed as 4-((1R,3aS,5aR,5bR,7aR,11aS,11bR,13aR,13bR)-3a-amino-5a,5b,8,8,11a-pentamethyl-1-(prop-1-en-2-yl)-2,3,3a,4,5,5a,5b,6,7,7a,8,11,11a,11b,12,13,13a,13b-octadecahydro-1H-cyclopenta[a]chrysen-9-yl)benzoic acid formation at 5 mg/kg, po administered via gavage by LC-MS/MS analysis. Conditions: in vivo. It is filed as ADME, organism-based, Canis lupus familiaris.

The nature of data set [15]: Drug metabolism in cynomolgus monkey plasma assessed as 4-((1R,3aS,5aR,5bR,7aR,11aS,11bR,13aR,13bR)-3a-amino-5a,5b,8,8,11a-pentamethyl-1-(prop-1-en-2-yl)-2,3,3a,4,5,5a,5b,6,7,7a,8,11,11a,11b,12,13,13a,13b-octadecahydro-1H-cyclopenta[a]chrysen-9-yl)benzoic acid formation at 5 mg/kg, po administered via gavage by LC-MS/MS analysis. Conditions: in vivo. Format: ADME, organism-based, Macaca fascicularis.

The nature of data set [16]: Drug metabolism in human plasma assessed as (2S,3S,4S,5R,6S)-6-[4-[(1R,3aS,5aR,5bR,7aR,11aS,11bR,13aR,13bR)-3a-[2-(1,1-dioxo-1,4-thiazinan-4-yl)ethylamino]-1-isopropenyl-5a,5b,8,8,11a-pentamethyl-1,2,3,4,5,6,7,7a,11,11b,12,13,13a,13b-tetradecahydrocyclopenta[a]chrysen-9-yl]benzoyl]oxy-3,4,5-trihydroxy-tetrahydropyran-2-carboxylic acid formation at 5 mg/kg, po administered via gavage by LC-MS/MS analysis. Conditions: in vivo. It is filed as ADME, organism-based.

Data set [17] is described as follows: Drug metabolism in Sprague-Dawley rat plasma assessed as (2S,3S,4S,5R,6S)-6-[4-[(1R,3aS,5aR,5bR,7aR,11aS,11bR,13aR,13bR)-3a-[2-(1,1-dioxo-1,4-thiazinan-4-yl)ethylamino]-1-isopropenyl-5a,5b,8,8,11a-pentamethyl-1,2,3,4,5,6,7,7a,11,11b,12,13,13a,13b-tetradecahydrocyclopenta[a]chrysen-9-yl]benzoyl]oxy-3,4,5-trihydroxy-tetrahydropyran-2-carboxylic acid formation at 5 mg/kg, po administered via gavage by LC-MS/MS analysis. Conditions: in vivo. It is filed as ADME, organism-based.

Data set [18] in a line: Drug metabolism in beagle dog plasma assessed as (2S,3S,4S,5R,6S)-6-[4-[(1R,3aS,5aR,5bR,7aR,11aS,11bR,13aR,13bR)-3a-[2-(1,1-dioxo-1,4-thiazinan-4-yl)ethylamino]-1-isopropenyl-5a,5b,8,8,11a-pentamethyl-1,2,3,4,5,6,7,7a,11,11b,12,13,13a,13b-tetradecahydrocyclopenta[a]chrysen-9-yl]benzoyl]oxy-3,4,5-trihydroxy-tetrahydropyran-2-carboxylic acid formation at 5 mg/kg, po administered via gavage by LC-MS/MS analysis. Format: ADME, organism-based, Canis lupus familiaris. The settings on record: in vivo.

Data set [19] is described as follows: Drug metabolism in cynomolgus monkey plasma assessed as (2S,3S,4S,5R,6S)-6-[4-[(1R,3aS,5aR,5bR,7aR,11aS,11bR,13aR,13bR)-3a-[2-(1,1-dioxo-1,4-thiazinan-4-yl)ethylamino]-1-isopropenyl-5a,5b,8,8,11a-pentamethyl-1,2,3,4,5,6,7,7a,11,11b,12,13,13a,13b-tetradecahydrocyclopenta[a]chrysen-9-yl]benzoyl]oxy-3,4,5-trihydroxy-tetrahydropyran-2-carboxylic acid formation at 5 mg/kg, po administered via gavage by LC-MS/MS analysis. Format: ADME, organism-based, Macaca fascicularis. Conditions: in vivo.

For data set [20], the system named is Human immunodeficiency virus 1. Kind of data set: Ratio of EC50 for antiviral activity against wild type HIV1 infected in human MT2 cells after 4 to 5 days in presence of 10% FBS plus […] by dual luciferase reporter gene assay to EC50 for antiviral activity against wild type HIV1 infected in human MT2 cells after 4 to 5 days by dual luciferase reporter gene assay. It is filed as functional.

A short description of data set [21]: in vitro. The settings on record: human, MT2 cells.
Description: Cytotoxicity against human MT2 cells assessed as reduction in cell viability
Data set [22] concerns Human immunodeficiency virus 1. Kind of data set: microbe, parasite or virus in culture. The settings on record: Human immunodeficiency virus 1, MT2.
Description: Antiviral activity against wild type HIV1 infected in human MT2 cells after 4 to 5 days by dual luciferase reporter gene assay
Data set [23] relates to Human immunodeficiency virus 1. Kind of data set: microbe, parasite or virus in culture. Conditions: Human immunodeficiency virus 1, MT2. The source holds these as a separate data set.
Description: Antiviral activity against wild type HIV1 infected in human MT2 cells after 4 to 5 days in presence of 10% FBS and 40% human serum albumin by dual luciferase reporter gene assay
The nature of data set [24]: Solubility of compound in fasted state simulated intestinal fluid at pH 6.5. It is filed as physicochemical.
Data set [25] in a line: Solubility of compound in fed state simulated intestinal fluid at pH 5. It is filed as physicochemical.
Another data set is described as follows: physchem. The settings on record: aqueous.
Data set [26] deals with Human immunodeficiency virus 1. Put plainly: microbe, parasite or virus in culture. The settings on record: Human immunodeficiency virus 1, MT2. This is another data set of the same source.
The subject of data set [27] is Human immunodeficiency virus 1. Put plainly: microbe, parasite or virus in culture. The settings on record: Human immunodeficiency virus 1, MT2. The source holds these as a separate data set.
Description: Antiviral activity against HIV1 expressing gag delta V370 mutant infected in human MT2 cells after 4 to 5 days by dual luciferase reporter gene assay

Description for physchem: Aqueous solubility of the compound

Regarding `C=C(C)[C@@H]1CC[C@]2(N)CC[C@]3(C)[C@H](CC[C@@H]4[C@@]5(C)CC=C(c6ccc(C(=O)O)cc6)C(C)(C)[C@@H]5CC[C@]43C)[C@@H]12`, the Drug uptake result in data set [1], in [2], in data set [3] and in data set [4] was “Active” each time.

For `C=C(C)[C@@H]1CC[C@]2(NCCN3CCS(=O)(=O)CC3)CC[C@]3(C)[C@H](CC[C@@H]4[C@@]5(C)CC=C(c6ccc(C(=O)OC)cc6)C(C)(C)[C@@H]5CC[C@]43C)[C@@H]12`, the Drug uptake result in [1], in [2], in [3] and in [4] was “Active” throughout.

`C=C(C)[C@@H]1CC[C@]2(CNCCCN3CCS(=O)(=O)CC3)CC[C@]3(C)[C@H](CC[C@@H]4[C@@]5(C)CC=C(c6ccc(C(=O)O)cc6)C(C)(C)[C@@H]5CC[C@]43C)[C@@H]12`: the pKa (usually the negative logarithm of the acid dissociation constant) in data set [5] was found to be 5.4. The AUC(0-t) (in general, the area under the concentration-time curve up to a stated or last time point) at 24 h in “in vivo” was 3.15 µM·h. Also, the half-life at 1 h, 0.5 µM in the data set “in vitro [6]” and in “in vitro [7]” was > 2 h each time.

With `C=C(C)[C@@H]1CC[C@]2(NCCN3CCS(=O)(=O)CC3)CC[C@]3(C)[C@H](CC[C@@H]4[C@@]5(C)CC=C(c6ccc([14C](=O)O)cc6)C(C)(C)[C@@H]5CC[C@]43C)[C@@H]12`, the Drug metabolism result in [8], in [9], in data set [10], in [11], in [12] and in data set [13] was “Metabolite_Detected” each time. Besides, the Drug metabolism entry in data set [14], in data set [15], in data set [16], in data set [17], in data set [18] and in data set [19] was “Metabolite_Detected” each time.

For the compound `C=C(C)[C@@H]1CC[C@]2(NCCN3CCCS(=O)(=O)CC3)CC[C@]3(C)[C@H](CC[C@@H]4[C@@]5(C)CC=C(c6ccc(C(=O)O)cc6)C(C)(C)[C@@H]5CC[C@]43C)[C@@H]12`, in [20], the “Ratio EC50” value was 9.7. Further, in “in vitro [21]”, it took 4900 nM to reach half-maximal cytotoxicity (CC50). Also, the half-life at 1 h, 0.5 µM in the data set “in vitro [6]” and in the data set “in vitro [7]” was > 2 h each time. The results for the EC50 in [22] and in data set [23] were 3.6 nM and 35.1 nM, respectively.

As to `C=C(C)[C@@H]1CC[C@]2(NCCN3CCS(=O)(=O)CC3)CC[C@]3(C)[C@H](CC[C@@H]4[C@@]5(C)CC=C(c6ccc(C(=O)O)c(F)c6)C(C)(C)[C@@H]5CC[C@]43C)[C@@H]12`, the solubility (as a rule, how much of the substance goes into solution per volume) in data set [24] is 140 µg/mL (≈ 197 µM); in data set [25] it was 330 µg/mL (≈ 465 µM); in the data set “physchem”, < 1 µg/mL. In addition, in the data set “in vivo”, the area under the curve AUC(0-t) at 24 h amounted to 24.3 µM·h. In the data set “in vitro [21]”, the midpoint of cytotoxicity, the CC50, lay at 7800 nM. In addition, the half-life at 1 h, 0.5 µM in “in vitro [6]” and in the data set “in vitro [7]” was > 2 h throughout. Also, the concentration giving a half-maximal response (EC50) (as a rule, the concentration needed to bring the measured effect to its halfway point) in data set [22] stood at 2.8 nM; in data set [23] it was 12.8 nM; in data set [26] it was 3.4 nM; in [27], 9.7 nM.
